Measured values: US10906873B2, “Substituted cyclic amides as herbicides” (FMC Corporation, priority 2015, dated 2021)

What follows are compounds tested on galium (catchweed bedstraw, Galium aparine) (assay: Test A postemergence, galium). Conditions: 125 g ai/ha, 0 to 100 scale.
Format: in vivo
Excerpt: (§1) Seeds of plant species selected from barnyardgrass (Echinochloa crus-galli), crabgrass (large crabgrass, Digitaria sanguinalis), kochia (Kochia scoparia), ragweed (common ragweed, Ambrosia elatior), morningglory (Ipomoea spp.), velvetleaf (Abutilon theophrasti), ryegrass, It. (Italian ryegrass, Lolium multiflorum), foxtail, giant (giant foxtail, Setaria faberii), wheat (Triticum aestivum), corn (Zea mays), and pigweed (Amaranthus retroflexus), were planted into a blend of loam soil and sand and treated preemergence with a directed soil spray using test chemicals formulated in a non-phytotoxic solvent mixture which included a surfactant. At the same time, plants selected from these crop and weed species and also blackgrass (Alopecurus myosuroides), and galium (catchweed bedstraw, Galium aparine), were planted in pots containing the same blend of loam soil and sand and treated with postemergence applications of test chemicals formulated in the same manner. Plants ranged in height from 2 to 10 cm and were in the one- to two-leaf stage for the postemergence treatment. Treated plants and untreated controls were maintained in a greenhouse for approximately 10 d, after which time all treated plants were compared to untreated controls and visually evaluated for injury. Plant response ratings, summarized in Table A, are based on a 0 to 100 scale where 0 is no effect and 100 is complete control. A dash (-) response means no test result.

Structure (SMILES) | Plant response rating, Galium
O=C1NCC(Cc2ccc(F)c(F)c2)C1C(=O)Nc1cccc(F)c1F (stereo not drawn) [Compound 12] | 0

Same assay, conditions: 500 g ai/ha, 0 to 100 scale

Structure (SMILES) | Plant response rating, Galium
O=C1NCC(Cc2ccc(F)c(F)c2)C1C(=O)Nc1cccc(F)c1F (stereo not drawn) [Compound 12] | 0

Each compound was assayed on kochia (Kochia scoparia) (assay: Test A preemergence, kochia). Conditions: 125 g ai/ha, 0 to 100 scale.
Format: in vivo
Excerpt: as §1

Structure (SMILES) | Plant response rating, Kochia
O=C1NCC(Cc2ccc(F)c(F)c2)C1C(=O)Nc1cccc(F)c1F (stereo not drawn) [Compound 12] | 0

Same assay, conditions: 500 g ai/ha, 0 to 100 scale

Structure (SMILES) | Plant response rating, Kochia
O=C1NCC(Cc2ccc(F)c(F)c2)C1C(=O)Nc1cccc(F)c1F (stereo not drawn) [Compound 12] | 0

What follows are compounds tested on ragweed (common ragweed, Ambrosia elatior) (assay: Test A postemergence, ragweed). Conditions: 125 g ai/ha, 0 to 100 scale.
Format: in vivo
Excerpt: as §1

Structure (SMILES) | Plant response rating, Ragweed
O=C1NCC(Cc2ccc(F)c(F)c2)C1C(=O)Nc1cccc(F)c1F (stereo not drawn) [Compound 12] | 0

Same assay, conditions: 500 g ai/ha, 0 to 100 scale

Structure (SMILES) | Plant response rating, Ragweed
O=C1NCC(Cc2ccc(F)c(F)c2)C1C(=O)Nc1cccc(F)c1F (stereo not drawn) [Compound 12] | 0

The compounds below were run on ragweed (common ragweed, Ambrosia elatior) (assay: Test A preemergence, ragweed). Conditions: 125 g ai/ha, 0 to 100 scale.
Format: in vivo
Excerpt: as §1

Structure (SMILES) | Plant response rating, Ragweed
O=C1NCC(Cc2ccc(F)c(F)c2)C1C(=O)Nc1cccc(F)c1F (stereo not drawn) [Compound 12] | 0

Same assay, conditions: 500 g ai/ha, 0 to 100 scale

Structure (SMILES) | Plant response rating, Ragweed
O=C1NCC(Cc2ccc(F)c(F)c2)C1C(=O)Nc1cccc(F)c1F (stereo not drawn) [Compound 12] | 0

The compounds below were run on barnyardgrass (Echinochloa crus-galli) (assay: Test B flooded paddy test, barnyardgrass). Conditions: Flood, 500 g ai/ha; scale of 0 to 100 where 0 is no effect and 100 is complete control; 13 to 15 d.
Format: in vivo
Procedure: (§2) Plant species in the flooded paddy test selected from rice (Oryza sativa), sedge, umbrella (small-flower umbrella sedge, Cyperus difformis), ducksalad (Heteranthera limosa), and barnyardgrass (Echinochloa crus-galli) were grown to the 2-leaf stage for testing. At time of treatment, test pots were flooded to 3 cm above the soil surface, treated by application of test compounds directly to the paddy water, and then maintained at that water depth for the duration of the test. Treated plants and controls were maintained in a greenhouse for 13 to 15 d, after which time all species were compared to controls and visually evaluated. Plant response ratings, summarized in Table B, are based on a scale of 0 to 100 where 0 is no effect and 100 is complete control. A dash (-) response means no test result.

Structure (SMILES) | Plant response rating, Barnyardgrass
O=C1NCC(Cc2ccc(F)c(F)c2)C1C(=O)Nc1cccc(F)c1F (stereo not drawn) [Compound 12] | 0

Each compound was assayed on pigweed (Amaranthus retroflexus) (assay: Test A preemergence, pigweed). Conditions: 125 g ai/ha, 0 to 100 scale.
Format: in vivo
Excerpt: as §1

Structure (SMILES) | Plant response rating, Pigweed
O=C1NCC(Cc2ccc(F)c(F)c2)C1C(=O)Nc1cccc(F)c1F (stereo not drawn) [Compound 12] | 0

Same assay, conditions: 500 g ai/ha, 0 to 100 scale

Structure (SMILES) | Plant response rating, Pigweed
O=C1NCC(Cc2ccc(F)c(F)c2)C1C(=O)Nc1cccc(F)c1F (stereo not drawn) [Compound 12] | 0

These compounds were tested on rice (Oryza sativa) (assay: Test B flooded paddy test, rice). Conditions: Flood, 500 g ai/ha; scale of 0 to 100 where 0 is no effect and 100 is complete control; 13 to 15 d.
Format: in vivo
Procedure: as §2

Structure (SMILES) | Plant response rating, Rice
O=C1NCC(Cc2ccc(F)c(F)c2)C1C(=O)Nc1cccc(F)c1F (stereo not drawn) [Compound 12] | 0

Each compound was assayed on ryegrass, It. (Italian ryegrass, Lolium multiflorum) (assay: Test A postemergence, ryegrass, It.). Conditions: 125 g ai/ha, 0 to 100 scale.
Format: in vivo
Excerpt: as §1

Structure (SMILES) | Plant response rating, Ryegrass, It.
O=C1NCC(Cc2ccc(F)c(F)c2)C1C(=O)Nc1cccc(F)c1F (stereo not drawn) [Compound 12] | 0

Same assay, conditions: 500 g ai/ha, 0 to 100 scale

Structure (SMILES) | Plant response rating, Ryegrass, It.
O=C1NCC(Cc2ccc(F)c(F)c2)C1C(=O)Nc1cccc(F)c1F (stereo not drawn) [Compound 12] | 0

The compounds below were run on barnyardgrass (Echinochloa crus-galli) (assay: Test A postemergence, barnyardgrass). Conditions: 125 g ai/ha, 0 to 100 scale.
Format: in vivo
Excerpt: as §1

Structure (SMILES) | Plant response rating, Barnyardgrass
O=C1NCC(Cc2ccc(F)c(F)c2)C1C(=O)Nc1cccc(F)c1F (stereo not drawn) [Compound 12] | 0

Same assay, conditions: 500 g ai/ha, 0 to 100 scale

Structure (SMILES) | Plant response rating, Barnyardgrass
O=C1NCC(Cc2ccc(F)c(F)c2)C1C(=O)Nc1cccc(F)c1F (stereo not drawn) [Compound 12] | 0

These compounds were tested on pigweed (Amaranthus retroflexus) (assay: Test A postemergence, pigweed). Conditions: 125 g ai/ha, 0 to 100 scale.
Format: in vivo
Excerpt: as §1

Structure (SMILES) | Plant response rating, Pigweed
O=C1NCC(Cc2ccc(F)c(F)c2)C1C(=O)Nc1cccc(F)c1F (stereo not drawn) [Compound 12] | 0

Same assay, conditions: 500 g ai/ha, 0 to 100 scale

Structure (SMILES) | Plant response rating, Pigweed
O=C1NCC(Cc2ccc(F)c(F)c2)C1C(=O)Nc1cccc(F)c1F (stereo not drawn) [Compound 12] | 0

These compounds were tested on corn (Zea mays) (assay: Test A postemergence, corn). Conditions: 125 g ai/ha, 0 to 100 scale.
Format: in vivo
Excerpt: as §1

Structure (SMILES) | Plant response rating, Corn
O=C1NCC(Cc2ccc(F)c(F)c2)C1C(=O)Nc1cccc(F)c1F (stereo not drawn) [Compound 12] | 0

Same assay, conditions: 500 g ai/ha, 0 to 100 scale

Structure (SMILES) | Plant response rating, Corn
O=C1NCC(Cc2ccc(F)c(F)c2)C1C(=O)Nc1cccc(F)c1F (stereo not drawn) [Compound 12] | 0

These compounds were tested on barnyardgrass (Echinochloa crus-galli) (assay: Test A preemergence, barnyardgrass). Conditions: 125 g ai/ha, 0 to 100 scale.
Format: in vivo
Excerpt: as §1

Structure (SMILES) | Plant response rating, Barnyardgrass
O=C1NCC(Cc2ccc(F)c(F)c2)C1C(=O)Nc1cccc(F)c1F (stereo not drawn) [Compound 12] | 0

Same assay, conditions: 500 g ai/ha, 0 to 100 scale

Structure (SMILES) | Plant response rating, Barnyardgrass
O=C1NCC(Cc2ccc(F)c(F)c2)C1C(=O)Nc1cccc(F)c1F (stereo not drawn) [Compound 12] | 60

These compounds were tested on wheat (Triticum aestivum) (assay: Test A postemergence, wheat). Conditions: 125 g ai/ha, 0 to 100 scale.
Format: in vivo
Excerpt: as §1

Structure (SMILES) | Plant response rating, Wheat
O=C1NCC(Cc2ccc(F)c(F)c2)C1C(=O)Nc1cccc(F)c1F (stereo not drawn) [Compound 12] | 0

Same assay, conditions: 500 g ai/ha, 0 to 100 scale

Structure (SMILES) | Plant response rating, Wheat
O=C1NCC(Cc2ccc(F)c(F)c2)C1C(=O)Nc1cccc(F)c1F (stereo not drawn) [Compound 12] | 0

What follows are compounds tested on ducksalad (Heteranthera limosa) (assay: Test B flooded paddy test, ducksalad). Conditions: Flood, 500 g ai/ha; scale of 0 to 100 where 0 is no effect and 100 is complete control; 13 to 15 d.
Format: in vivo
Procedure: as §2

Structure (SMILES) | Plant response rating, Ducksalad
O=C1NCC(Cc2ccc(F)c(F)c2)C1C(=O)Nc1cccc(F)c1F (stereo not drawn) [Compound 12] | 0

These compounds were tested on blackgrass (Alopecurus myosuroides) (assay: Test A postemergence, blackgrass). Conditions: 125 g ai/ha, 0 to 100 scale.
Format: in vivo
Excerpt: as §1

Structure (SMILES) | Plant response rating, Blackgrass
O=C1NCC(Cc2ccc(F)c(F)c2)C1C(=O)Nc1cccc(F)c1F (stereo not drawn) [Compound 12] | 0

Same assay, conditions: 500 g ai/ha, 0 to 100 scale

Structure (SMILES) | Plant response rating, Blackgrass
O=C1NCC(Cc2ccc(F)c(F)c2)C1C(=O)Nc1cccc(F)c1F (stereo not drawn) [Compound 12] | 0

What follows are compounds tested on foxtail, giant (giant foxtail, Setaria faberii) (assay: Test A postemergence, foxtail, giant). Conditions: 125 g ai/ha, 0 to 100 scale.
Format: in vivo
Excerpt: as §1

Structure (SMILES) | Plant response rating, Foxtail, Giant
O=C1NCC(Cc2ccc(F)c(F)c2)C1C(=O)Nc1cccc(F)c1F (stereo not drawn) [Compound 12] | 0

Same assay, conditions: 500 g ai/ha, 0 to 100 scale

Structure (SMILES) | Plant response rating, Foxtail, Giant
O=C1NCC(Cc2ccc(F)c(F)c2)C1C(=O)Nc1cccc(F)c1F (stereo not drawn) [Compound 12] | 0

What follows are compounds tested on ryegrass, It. (Italian ryegrass, Lolium multiflorum) (assay: Test A preemergence, ryegrass, It.). Conditions: 125 g ai/ha, 0 to 100 scale.
Format: in vivo
Excerpt: as §1

Structure (SMILES) | Plant response rating, Ryegrass, It.
O=C1NCC(Cc2ccc(F)c(F)c2)C1C(=O)Nc1cccc(F)c1F (stereo not drawn) [Compound 12] | 0

Same assay, conditions: 500 g ai/ha, 0 to 100 scale

Structure (SMILES) | Plant response rating, Ryegrass, It.
O=C1NCC(Cc2ccc(F)c(F)c2)C1C(=O)Nc1cccc(F)c1F (stereo not drawn) [Compound 12] | 0

The compounds below were run on sedge, umbrella (small-flower umbrella sedge, Cyperus difformis) (assay: Test B flooded paddy test, sedge, umbrella). Conditions: Flood, 500 g ai/ha; scale of 0 to 100 where 0 is no effect and 100 is complete control; 13 to 15 d.
Format: in vivo
Procedure: as §2

Structure (SMILES) | Plant response rating, Sedge, Umbrella
O=C1NCC(Cc2ccc(F)c(F)c2)C1C(=O)Nc1cccc(F)c1F (stereo not drawn) [Compound 12] | 0

The compounds below were run on kochia (Kochia scoparia) (assay: Test A postemergence, kochia). Conditions: 125 g ai/ha, 0 to 100 scale.
Format: in vivo
Excerpt: as §1

Structure (SMILES) | Plant response rating, Kochia
O=C1NCC(Cc2ccc(F)c(F)c2)C1C(=O)Nc1cccc(F)c1F (stereo not drawn) [Compound 12] | 0

Same assay, conditions: 500 g ai/ha, 0 to 100 scale

Structure (SMILES) | Plant response rating, Kochia
O=C1NCC(Cc2ccc(F)c(F)c2)C1C(=O)Nc1cccc(F)c1F (stereo not drawn) [Compound 12] | 0

Each compound was assayed on foxtail, giant (giant foxtail, Setaria faberii) (assay: Test A preemergence, foxtail, giant). Conditions: 125 g ai/ha, 0 to 100 scale.
Format: in vivo
Excerpt: as §1

Structure (SMILES) | Plant response rating, Foxtail, Giant
O=C1NCC(Cc2ccc(F)c(F)c2)C1C(=O)Nc1cccc(F)c1F (stereo not drawn) [Compound 12] | 0

Same assay, conditions: 500 g ai/ha, 0 to 100 scale

Structure (SMILES) | Plant response rating, Foxtail, Giant
O=C1NCC(Cc2ccc(F)c(F)c2)C1C(=O)Nc1cccc(F)c1F (stereo not drawn) [Compound 12] | 60
